{"source": "patent US8293781B2", "about": "“Indole derivatives having cPLA2 inhibiting activity and applications and production methods of the same” (Daiichi Sankyo Company, Limited, priority 2007, dated 2012)", "note": "Structures can show the parent of a compound that is named as a salt."}
{"target": "T1, cPLA2 crudely purified from the cytoplasm fraction of U937 (Homo sapiens, UniProt P47712)", "T1 construct": "cPLA2 crudely purified from the cytoplasm fraction of U937; endogenous in cells; host or cells: U937 cells (cytoplasm fraction, crude purification)", "T1 sequence (P47712 1-749)": "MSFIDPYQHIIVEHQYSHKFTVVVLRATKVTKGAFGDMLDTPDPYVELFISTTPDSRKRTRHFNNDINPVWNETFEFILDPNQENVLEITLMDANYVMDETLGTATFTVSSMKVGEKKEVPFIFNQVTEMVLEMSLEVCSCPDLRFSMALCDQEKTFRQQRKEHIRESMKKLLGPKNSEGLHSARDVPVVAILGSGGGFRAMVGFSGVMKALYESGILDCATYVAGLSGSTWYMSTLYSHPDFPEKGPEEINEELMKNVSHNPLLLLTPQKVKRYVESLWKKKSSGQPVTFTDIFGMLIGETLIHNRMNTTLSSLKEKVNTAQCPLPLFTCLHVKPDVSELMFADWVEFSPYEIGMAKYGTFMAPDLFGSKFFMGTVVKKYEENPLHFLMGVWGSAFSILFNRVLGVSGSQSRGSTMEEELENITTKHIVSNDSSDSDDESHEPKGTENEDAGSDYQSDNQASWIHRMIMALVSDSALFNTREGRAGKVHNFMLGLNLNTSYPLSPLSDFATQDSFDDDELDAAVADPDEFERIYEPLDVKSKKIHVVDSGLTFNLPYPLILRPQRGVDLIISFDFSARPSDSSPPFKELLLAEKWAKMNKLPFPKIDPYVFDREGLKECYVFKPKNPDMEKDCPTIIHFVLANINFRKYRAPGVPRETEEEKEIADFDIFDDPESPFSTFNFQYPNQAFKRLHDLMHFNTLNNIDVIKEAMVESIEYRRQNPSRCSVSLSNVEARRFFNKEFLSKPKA", "assay": "Measurement of cPLA2 inhibitory activity (release of [14C]-arachidonic acid from phosphatidyl choline liposome)", "assay_type": "biochemical", "conditions": "not given", "experimental": "(§1) The cPLA2 inhibitory activity was measured based on the method described in the document [See H. Naraba et al., J. Immunol. 160, 2974-2982 (1998)] and modified in the following way.\n(§2) A DMSO solution of the present invitation compounds was diluted to 2.5 times the final concentration with the assay buffer (4 mM CaCl2, 2 mM dithiothreitol, 150 mM NaCl, 50 mM HEPES buffer solution (pH7.5)) containing 0.55 mg/ml BSA. To 20 μl of this, cPLA2 crudely purified from the cytoplasm fraction of U937 was added in an amount of 10 μl after dilution by an assay buffer solution containing 0.55 mg/ml BSA. A liposome prepared by ultrasonically treating L-α-1-palmitoyl-2-[14C]arachidonyl-phosphatidyl choline (made by PerkinElmer) and adjusted by the assay buffer solution to a concentration of phosphatidyl choline of 10 μM was added and stirred in by an amount of 20 μl and the mixture was reacted at 37° C. for 60 minutes. The [^14C]-arachidonic acid released due to the reaction was extracted based on the method described in the documents [see V. P. Dole et al., J. Biol. Chem. 235, 2595 (1960)], was added to Lumaplate® (made by PerkinElmer), dried, then measured by Topcount® (made by PerkinElmer). Except for not adding the present invention compounds, the same procedure was performed as the above to obtain the enzyme control. Except for not adding the invention compounds and not adding the enzyme, the same procedure was followed as above to obtain a negative control. The inhibiting activity was expressed as a percent (%) of the value minus the negative control with respect to the value of the enzyme control minus the negative control. From this, the 50% inhibiting concentration (IC50, μM) was calculated.", "units": {"IC50": "nM"}}
{"smiles": "O=C(O)/C=C/c1ccc2c(c1)c(C(=O)c1ccccc1)cn2-c1ccccc1", "note": "[Example 3, (2E)-3-(3-benzoyl-1-phenyl-1H-indol-5-yl)-2-propenoic acid]", "IC50": 494}
{"target": "T1, cPLA2 crudely purified from the cytoplasm fraction of U937", "assay": "Measurement of cPLA2 inhibitory activity (release of [14C]-arachidonic acid from phosphatidyl choline liposome)", "assay_type": "biochemical", "conditions": "cPLA2 from U937 cytoplasm fraction, [14C]arachidonyl-phosphatidyl choline liposome, 37° C., 60 minutes; read-out: cPLA2 inhibitory activity, 50% inhibiting concentration IC50", "experimental": "as §1, §2", "units": {"IC50": "nM"}}
{"smiles": "CC(C)(C)C(=O)Nc1cccc(-n2cc(CCc3ccccc3)c3cc(CCC(=O)O)ccc32)c1", "note": "[Example 171, 3-[1-{3-[(2,2-dimethylpropanoyl)amino]phenyl}-3-(2-phenylethyl)-1H-indol-5-yl]propanoic acid]", "IC50": 210}
{"smiles": "O=C(CCc1ccc2c(c1)c(CCc1ccccc1)cn2-c1ccccc1)Nc1nnn[nH]1", "note": "[Example 19, 3-[1-phenyl-3-(2-phenylethyl)-1H-indol-5-yl]-N-tetrazolylpropanamide]", "IC50": 10800}
{"smiles": "O=C(O)CCc1ccc2c(c1)c(CCc1ccccc1)cn2-c1ccc(COc2ccc(F)cc2)cc1", "note": "[Example 291, 3-[1-{4-[(4-fluorophenoxy)methyl]phenyl}-3-(2-phenylethyl)-1H-indol-5-yl]propanoic acid 2-amino-2-(hydroxymethyl)propane-1,3-diol salt (1:1)]", "IC50": 83}
{"smiles": "O=C(O)CCc1ccc2c(c1)c(CCc1ccccc1)cn2-c1ccc(OCC2CCCCO2)cc1", "note": "(stereo not drawn) [Example 243, 3-{3-(2-phenylethyl)-1-[4-(tetrahydro-2H-pyran-2-ylmethoxy)phenyl]-1H-indol-5-yl}propanoic acid 2-amino-2-(hydroxymethyl)propane-1,3-diol salt (1:1)]", "IC50": 4}
{"smiles": "O=C(CCc1ccc2c(c1)c(CCc1ccccc1)cn2-c1ccccc1)NO", "note": "[Example 21, N-hydroxy-3-[1-phenyl-3-(2-phenylethyl)-1H-indol-5-yl]propanamide]", "IC50": 15800}
{"smiles": "O=C(O)CCc1ccc2c(c1)c(CCc1ccccc1)cn2-c1ccc(OCCc2ccccn2)cc1", "note": "[Example 251, 3-{3-(2-phenylethyl)-1-[4-(2-pyridin-2-ylethoxy)phenyl]-1H-indol-5-yl}propanoic acid]", "IC50": 9}
{"smiles": "O=C(O)CCc1ccc2c(c1)c(CCc1ccccc1)cn2-c1cccc(C(=O)O)c1", "note": "[Example 177, 3-[5-(2-carboxyethyl)-3-(2-phenylethyl)-1H-indol-1-yl]benzoic acid]", "IC50": 2520}
{"smiles": "O=C(CCc1ccc2c(c1)c(CCc1ccccc1)cn2-c1ccc(OC(F)F)cc1)C(F)(F)F", "note": "[Example 329, 4-{1-[4-(difluoromethoxy)phenyl]-3-(2-phenylethyl)-1H-indol-5-yl}-1,1,1-trifluorobutan-2-one]", "IC50": 318}
{"smiles": "O=C(O)CCc1ccc2c(c1)c(CCCc1ccccc1)cn2-c1ccc(O)cc1", "note": "[Example 340, 3-[1-(4-hydroxyphenyl)-3-(3-phenylpropyl)-1H-indol-5-yl]propanoic acid]", "IC50": 568}
{"smiles": "Cc1ccc(-n2cc(CCc3ccccc3)c3cc(CCC(=O)O)ccc32)cc1C", "note": "[Example 101, 3-[1-(3,4-dimethylphenyl)-3-(2-phenylethyl)-1H-indol-5-yl]propanoic acid 2-amino-2-(hydroxymethyl)propane-1,3-diol salt (1:1)]", "IC50": 96}
{"smiles": "COc1ccc(CCc2cn(-c3ccccc3)c3ccc(CCC(=O)O)cc23)cc1", "note": "[Example 66, 3-{3-[2-(4-methoxyphenyl)ethyl]-1-phenyl-1H-indol-5-yl}propanoic acid 2-amino-2-(hydroxymethyl)propane-1,3-diol salt (1:1)]", "IC50": 718}
{"smiles": "O=C(O)CCc1ccc2c(c1)c(CCc1ccccc1)cn2-c1ccc(OCc2ccccn2)cc1", "note": "[Example 245, 3-{3-(2-phenylethyl)-1-[4-(pyridin-2-ylmethoxy)phenyl]-1H-indol-5-yl}propanoic acid]", "IC50": 10}
{"smiles": "COCCOc1ccc(-n2cc(CCc3ccccc3)c3cc(CCC(=O)O)ccc32)cc1", "note": "[Example 203, 3-{1-[4-(2-methoxyethoxy)phenyl]-3-(2-phenylethyl)-1H-indol-5-yl}propanoic acid]", "IC50": 10}
{"smiles": "O=C(O)CCc1ccc2c(c1)c(CCc1ccccc1)cn2-c1ccc(OCc2cccnc2)cc1", "note": "[Example 249, 3-{3-(2-phenylethyl)-1-[4-(pyridin-3-ylmethoxy)phenyl]-1H-indol-5-yl}propanoic acid hydrochloride]", "IC50": 26}
